Structures are written as SMILES. Values joined by “and” are separate entries in the source; they are usually repeats but may differ in a detail not shown here. Equal entries are not always repeated.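 All cell lines were grown in 96-well plates and treated with compound for 48 hours. Abbreviation: GI50, concentration required for 50% inhibition of growth. Definition used: TGI = concentration required for complete inhibition of growth.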

These results are taken from PubChem BioAssay (NCI).

Among the test systems are 786-0 renal; CCRF-CEM leukemia; HT29 colon; MALME-3M melanoma; MOLT-4 leukemia; NCI-H226 lung; NCI-H23 lung; NCI-H460 lung; NCI-H522 lung; SF-295 CNS; SK-OV-3 ovarian; SNB-19 CNS; SW-620 colon; UACC-257 melanoma; HOP-92 NSCLC; TK-10 renal; UACC-62 melanoma.
Holding throughout (test): NCI tumour cell line growth inhibition, 48 h

On to `O=C1NCCCC12CCCNC2=O`, for which the TGI in the test on 786-0 renal, in the test with CCRF-CEM leukemia, with HT29 colon, with MALME-3M melanoma, in the test on MOLT-4 leukemia and with NCI-H226 lung was above 100 µM in each case. Besides, the TGI in the test on NCI-H23 lung, with NCI-H460 lung, in the test with NCI-H522 lung, in the test with SF-295 CNS, in the test on SK-OV-3 ovarian and in the test with SNB-19 CNS was above 100 µM in each case. Besides, the TGI in the test with SW-620 colon and in the test with UACC-257 melanoma was above 100 µM in each case.

On to `CN(C(=O)c1ccc(Cl)cc1)C(=S)N1CCN(c2ccccn2)CC1`, for which the TGI in the test with 786-0 renal, in the test with CCRF-CEM leukemia, in the test with HOP-92 NSCLC, in the test with HT29 colon, with MALME-3M melanoma and in the test on MOLT-4 leukemia was above 100 µM in each case. Moreover, the TGI in the test on NCI-H226 lung, with NCI-H23 lung, in the test with NCI-H460 lung, in the test with NCI-H522 lung, with SF-295 CNS and in the test with SK-OV-3 ovarian was above 100 µM each time. The TGI in the test on SNB-19 CNS, in the test on SW-620 colon, in the test on TK-10 renal, in the test with UACC-257 melanoma and in the test on UACC-62 melanoma was above 100 µM in each case.

With `COc1c(OC)c(N)c2cc(C)c(=O)c(C)cc2c1N`, the TGI in the test on 786-0 renal, in the test on CCRF-CEM leukemia, in the test on HOP-92 NSCLC, in the test on HT29 colon, with MALME-3M melanoma and in the test on MOLT-4 leukemia was above 100 µM in each case. In addition, the TGI in the test with NCI-H23 lung, with NCI-H460 lung, in the test on NCI-H522 lung, with SF-295 CNS, in the test on SK-OV-3 ovarian and in the test on SNB-19 CNS was above 100 µM throughout. The TGI with SW-620 colon was 35 µM; in the test with TK-10 renal, above 100 µM; with UACC-257 melanoma, above 100 µM; with UACC-62 melanoma, above 100 µM.

In the case of `COP(=O)(OC)C(=NCc1ccccc1)NNc1ccc([N+](=O)[O-])cc1`, the TGI with 786-0 renal is above 100 µM; with CCRF-CEM leukemia it was 55.1 µM; in the test with HOP-92 NSCLC, 54.4 µM; with HT29 colon it was above 100 µM; in the test with MALME-3M melanoma it was above 100 µM; with MOLT-4 leukemia, 74.8 µM. In addition, the TGI is 61.4 µM in the test with NCI-H23 lung; 79.3 µM in the test with NCI-H460 lung; 38.6 µM in the test with NCI-H522 lung; 67.4 µM in the test on SF-295 CNS; above 100 µM in the test on SW-620 colon; above 100 µM in the test on TK-10 renal. Besides, the TGI with UACC-257 melanoma was 51.1 µM; with UACC-62 melanoma it was above 100 µM.

Regarding `Nc1ccc(C(=O)NN2C(=O)C(Cl)C2c2cc(Br)ccc2O)cc1` (stereo not drawn), the TGI in the test with 786-0 renal, in the test on CCRF-CEM leukemia, in the test with HOP-92 NSCLC, with HT29 colon, in the test on MALME-3M melanoma and in the test on NCI-H226 lung was above 100 µM in each case. The TGI with NCI-H23 lung is above 100 µM; in the test on NCI-H460 lung, above 100 µM; with NCI-H522 lung it was 38.5 µM; in the test on SF-295 CNS, above 100 µM; in the test on SK-OV-3 ovarian, above 100 µM; in the test on SNB-19 CNS it was above 100 µM. The TGI in the test with SW-620 colon, with TK-10 renal, in the test with UACC-257 melanoma and with UACC-62 melanoma was above 100 µM throughout.

On to `COc1cc(C2c3cc4c(cc3[C@@H](NCCN3CCCCC3)C3COC(=O)[C@H]23)OCO4)cc(OC)c1O` (stereo partly drawn), for which the TGI in the test with 786-0 renal is 1.01 µM and 0.808 µM; in the test on CCRF-CEM leukemia, 0.36 µM and 0.465 µM; in the test on HOP-92 NSCLC it was 0.84 µM and 1.64 µM; in the test on HT29 colon, 3.56 µM; with MALME-3M melanoma it was 2.59 µM and 3.44 µM; in the test with MOLT-4 leukemia, 0.0735 µM and 0.0311 µM. Further, the TGI with NCI-H226 lung is 0.209 µM and 0.208 µM; with NCI-H23 lung, 1.39 µM and 1.48 µM; in the test on NCI-H460 lung, 1.03 µM and 0.914 µM; in the test with SF-295 CNS it was 0.881 µM; in the test with SK-OV-3 ovarian it was 0.877 µM and 0.484 µM; in the test with SNB-19 CNS, > 100 µM and 36.7 µM. Besides, the TGI in the test with SW-620 colon was 11.4 µM and 10.2 µM; in the test with TK-10 renal, 5.34 µM and 5.88 µM; in the test on UACC-257 melanoma, 41.4 µM and 85 µM; in the test with UACC-62 melanoma, 1.73 µM and 1.79 µM. Also, in the test on NCI-H460 lung, the GI50 was 0.0285 µM.

In the case of `O=C(O)C12C3C4C1C1C2C3C1(Br)C41OCCO1` (stereo not drawn), the TGI in the test on 786-0 renal, in the test on CCRF-CEM leukemia, in the test with HOP-92 NSCLC, in the test with HT29 colon, with MALME-3M melanoma and in the test with MOLT-4 leukemia was above 100 µM in each case. The TGI in the test with NCI-H23 lung, in the test on NCI-H460 lung, in the test with NCI-H522 lung, in the test with SF-295 CNS, in the test on SK-OV-3 ovarian and in the test with SNB-19 CNS was above 100 µM in each case. Moreover, the TGI in the test with SW-620 colon, with TK-10 renal and in the test with UACC-257 melanoma was above 100 µM in each case.

With `O/N=C/c1cc2c(cc1Br)OCO2`, the TGI in the test on 786-0 renal, in the test with CCRF-CEM leukemia, in the test on HT29 colon, in the test on MALME-3M melanoma, with MOLT-4 leukemia and with NCI-H226 lung was above 100 µM throughout. The TGI with NCI-H23 lung, in the test on NCI-H460 lung, in the test with NCI-H522 lung, with SF-295 CNS, with SK-OV-3 ovarian and in the test on SNB-19 CNS was above 100 µM throughout. Also, the TGI in the test with SW-620 colon, in the test on TK-10 renal, with UACC-257 melanoma and in the test on UACC-62 melanoma was above 100 µM in each case.

Turning to `CCOC(=O)NC(C(=O)OCC)C(F)(F)F` (stereo not drawn), the TGI with 786-0 renal, in the test with CCRF-CEM leukemia, in the test on HOP-92 NSCLC, with HT29 colon, with MALME-3M melanoma and in the test on MOLT-4 leukemia was above 100 µM each time. For the same compound, the TGI with NCI-H23 lung, with NCI-H460 lung, in the test on SF-295 CNS, in the test with SK-OV-3 ovarian, in the test with SNB-19 CNS and in the test on SW-620 colon was above 100 µM in each case. Moreover, the TGI with TK-10 renal and in the test on UACC-257 melanoma was above 100 µM in each case.

As to `O=c1[nH]c(=O)n(COCCO)c2ccc(Br)cc12`, the TGI in the test on 786-0 renal, with CCRF-CEM leukemia, with HOP-92 NSCLC, in the test with HT29 colon, in the test with MOLT-4 leukemia and in the test on NCI-H226 lung was above 100 µM throughout. The TGI with NCI-H460 lung, in the test with SF-295 CNS, in the test on SK-OV-3 ovarian, in the test with SNB-19 CNS, in the test with SW-620 colon and with TK-10 renal was above 100 µM each time. The TGI in the test on UACC-257 melanoma and with UACC-62 melanoma was above 100 µM throughout.

Turning to `COc1ccc(N(C)Sc2ccccc2)cc1`, the TGI with 786-0 renal is 34.9 µM; in the test on CCRF-CEM leukemia, 58.6 µM; in the test with HOP-92 NSCLC it was above 100 µM; with MALME-3M melanoma, above 100 µM; with MOLT-4 leukemia, 75.6 µM; in the test on NCI-H23 lung, above 100 µM. Also, the TGI in the test on NCI-H460 lung, in the test on NCI-H522 lung, in the test with SF-295 CNS, in the test on SK-OV-3 ovarian, in the test with SNB-19 CNS and in the test on SW-620 colon was above 100 µM throughout. The TGI in the test with TK-10 renal, with UACC-257 melanoma and in the test with UACC-62 melanoma was above 100 µM throughout.

With `O=C(Cc1ccccc1)NN1C(=O)C(Cl)C1c1ccc([N+](=O)[O-])cc1` (stereo not drawn), the TGI in the test on 786-0 renal, with HT29 colon, with MALME-3M melanoma, with MOLT-4 leukemia, with NCI-H226 lung and in the test with NCI-H23 lung was above 100 µM each time. Further, the TGI is above 100 µM in the test with NCI-H460 lung; 76.3 µM in the test with NCI-H522 lung; above 100 µM in the test on SF-295 CNS; above 100 µM in the test on SK-OV-3 ovarian; above 100 µM in the test with SNB-19 CNS; above 100 µM with SW-620 colon. Moreover, the TGI with TK-10 renal, in the test on UACC-257 melanoma and in the test on UACC-62 melanoma was above 100 µM in each case.

Consider `C=CCN(N=O)C(=O)N(CCCC(NC(C)=O)C(=O)NCc1ccccc1)Cc1ccccc1` (stereo not drawn), for which the TGI with 786-0 renal is above 100 µM; with CCRF-CEM leukemia, 95.6 µM; with HT29 colon, 82.4 µM; with MALME-3M melanoma, above 100 µM; in the test on MOLT-4 leukemia, 58.3 µM; with NCI-H23 lung, above 100 µM. In addition, the TGI is above 100 µM in the test with NCI-H460 lung; 84.8 µM in the test with NCI-H522 lung; above 100 µM with SF-295 CNS; above 100 µM with SK-OV-3 ovarian; above 100 µM in the test on SNB-19 CNS; above 100 µM with SW-620 colon. The TGI in the test on TK-10 renal, with UACC-257 melanoma and in the test with UACC-62 melanoma was above 100 µM throughout.

For `CCn1c2ccccc2c2ccc3c(c21)C(=O)c1ccccc1C3=O`, the TGI with 786-0 renal, with CCRF-CEM leukemia, with HOP-92 NSCLC, in the test on HT29 colon, with MALME-3M melanoma and with MOLT-4 leukemia was above 100 µM throughout. Further, the TGI with NCI-H226 lung, with NCI-H23 lung, in the test on NCI-H522 lung, in the test on SF-295 CNS, in the test with SK-OV-3 ovarian and in the test with SNB-19 CNS was above 100 µM each time. In addition, the TGI in the test with SW-620 colon, with UACC-257 melanoma and with UACC-62 melanoma was above 100 µM in each case.
